Columns and labels:
Conditions in all cases: 48 h
NOMO1 [1] = experiment: AUC of viability dose-response curve (% viability x log10 dose units); higher = less sensitive
Method in brief: (§1)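 Viability of medium-adapted leukemia cells was measured by CellTiter-Glo One luminescence after 48 h at 37°C with library compounds in DMSO. Doses were 11 threefold steps from 47 μM to 0.79 nM, in 1536-well plates at 500 or 1000 cells/well. Signals were normalised per plate to DMSO and cell-free wells and fitted with a four-parameter log-logistic model on log10 dose. Area under the curve was integrated by trapezoidal rule, with curves exceeding full viability scaled and failed quality-control curves removed.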

SEM cells [2] = experiment: as above
Method in brief: as §1

P12-Ichikawa [3] = experiment: as above
Method in brief: as §1

NOMO1 [4] = experiment: cell viability relative to DMSO control; higher = less cytotoxic
Method in brief: (§2)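 NOMO1, SEM and P12-Ichikawa leukemia cells spent at least four passages adapting to each medium before use. They were seeded at 500 cells/well (NOMO1, SEM) or 1000 cells/well (P12-Ichikawa) in 5 μl in 1536-well plates and pin-dosed with library compounds in DMSO at 11 threefold steps from 47 μM down to 0.79 nM. After 48 h at 37°C, CellTiter-Glo One luminescence was read. Viability is reported as a percentage of the DMSO wells on each plate, with cell-free wells as background.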

SEM cells [5] = experiment: as above
Method in brief: as §2

P12-Ichikawa [6] = experiment: as above
Method in brief: as §2

CCCN[C@H]1CCc2nc(N)sc2C1
AUC of viability dose-response curve
Conditions	NOMO1 [1]	P12-Ichikawa [3]	SEM cells [2]
HPLM + 10% dialyzed FBS	447	462	453
RPMI 5 mM glucose + 10% FBS	434	430	442
RPMI 5 mM glucose + 10% dialyzed FBS	466	450	442

cell viability [%]
Conditions	NOMO1 [4]	P12-Ichikawa [6]	SEM cells [5]
HPLM + 10% dialyzed FBS, 0.000781 µM	105	92.8	93.2
HPLM + 10% dialyzed FBS, 0.00234 µM	102	104	42
HPLM + 10% dialyzed FBS, 0.00702 µM	104	98	98.4
HPLM + 10% dialyzed FBS, 0.0211 µM	116	98.4	98.8
HPLM + 10% dialyzed FBS, 0.0632 µM	95.4	101	104
HPLM + 10% dialyzed FBS, 0.19 µM	102	107	96.4
HPLM + 10% dialyzed FBS, 0.569 µM	119	101	95.4
HPLM + 10% dialyzed FBS, 1.71 µM	112	110	99.2
HPLM + 10% dialyzed FBS, 5.12 µM	123	103	104
HPLM + 10% dialyzed FBS, 15.4 µM	118	104	99.8
HPLM + 10% dialyzed FBS, 46.1 µM	114	107	105
RPMI 5 mM glucose + 10% FBS, 0.000781 µM	86.8	94.3	91.7
RPMI 5 mM glucose + 10% FBS, 0.00234 µM	84.8	90.5	39.1
RPMI 5 mM glucose + 10% FBS, 0.00702 µM	96.6	107	99.4
RPMI 5 mM glucose + 10% FBS, 0.0211 µM	89.3	104	87.3
RPMI 5 mM glucose + 10% FBS, 0.0632 µM	92.6	107	96.2
RPMI 5 mM glucose + 10% FBS, 0.19 µM	90.6	110	98.9
RPMI 5 mM glucose + 10% FBS, 0.569 µM	85.3	107	103
RPMI 5 mM glucose + 10% FBS, 1.71 µM	96.2	111	97.6
RPMI 5 mM glucose + 10% FBS, 5.12 µM	96.7	114	85.6
RPMI 5 mM glucose + 10% FBS, 15.4 µM	90.5	114	105
RPMI 5 mM glucose + 10% FBS, 46.1 µM	89.3	120	104
RPMI 5 mM glucose + 10% dialyzed FBS, 0.000781 µM	83.9	85.6	89.2
RPMI 5 mM glucose + 10% dialyzed FBS, 0.00234 µM	93.1	95.1	37.6
RPMI 5 mM glucose + 10% dialyzed FBS, 0.00702 µM	104	90.4	98.3
RPMI 5 mM glucose + 10% dialyzed FBS, 0.0211 µM	98.8	93.6	101
RPMI 5 mM glucose + 10% dialyzed FBS, 0.0632 µM	106	96	119
RPMI 5 mM glucose + 10% dialyzed FBS, 0.19 µM	102	101	125
RPMI 5 mM glucose + 10% dialyzed FBS, 0.569 µM	101	96.1	106
RPMI 5 mM glucose + 10% dialyzed FBS, 1.71 µM	107	93.6	105
RPMI 5 mM glucose + 10% dialyzed FBS, 5.12 µM	87.1	94.9	112
RPMI 5 mM glucose + 10% dialyzed FBS, 15.4 µM	109	96.9	111
RPMI 5 mM glucose + 10% dialyzed FBS, 46.1 µM	82.4	106	91.4

O=C(c1cncc(Br)c1)N1CCC(N2CCCC2)CC1
AUC of viability dose-response curve
Conditions	NOMO1 [1]	P12-Ichikawa [3]	SEM cells [2]
HPLM + 10% dialyzed FBS	438	463	469
RPMI 5 mM glucose + 10% FBS	450	463	464
RPMI 5 mM glucose + 10% dialyzed FBS	450	459	463

cell viability [%]
Conditions	NOMO1 [4]	P12-Ichikawa [6]	SEM cells [5]
HPLM + 10% dialyzed FBS, 0.000781 µM	97.9	107	100
HPLM + 10% dialyzed FBS, 0.00234 µM	122	97.4	118
HPLM + 10% dialyzed FBS, 0.00702 µM	124	106	107
HPLM + 10% dialyzed FBS, 0.0211 µM	110	103	106
HPLM + 10% dialyzed FBS, 0.0632 µM	103	105	115
HPLM + 10% dialyzed FBS, 0.19 µM	105	99.9	106
HPLM + 10% dialyzed FBS, 0.569 µM	97.1	100	106
HPLM + 10% dialyzed FBS, 1.71 µM	105	101	107
HPLM + 10% dialyzed FBS, 5.12 µM	103	100	114
HPLM + 10% dialyzed FBS, 15.4 µM	92.2	95.1	99.7
HPLM + 10% dialyzed FBS, 46.1 µM	85.3	89.9	88.5
RPMI 5 mM glucose + 10% FBS, 0.000781 µM	93.5	93.6	98.4
RPMI 5 mM glucose + 10% FBS, 0.00234 µM	95.9	99.7	106
RPMI 5 mM glucose + 10% FBS, 0.00702 µM	110	100	107
RPMI 5 mM glucose + 10% FBS, 0.0211 µM	90.6	95.9	110
RPMI 5 mM glucose + 10% FBS, 0.0632 µM	91.4	98.2	105
RPMI 5 mM glucose + 10% FBS, 0.19 µM	96.5	96.7	114
RPMI 5 mM glucose + 10% FBS, 0.569 µM	102	100	117
RPMI 5 mM glucose + 10% FBS, 1.71 µM	93.1	94	108
RPMI 5 mM glucose + 10% FBS, 5.12 µM	94.6	103	117
RPMI 5 mM glucose + 10% FBS, 15.4 µM	85.4	92.5	95.1
RPMI 5 mM glucose + 10% FBS, 46.1 µM	84.4	90.3	77.2
RPMI 5 mM glucose + 10% dialyzed FBS, 0.000781 µM	112	95.9	110
RPMI 5 mM glucose + 10% dialyzed FBS, 0.00234 µM	105	102	95
RPMI 5 mM glucose + 10% dialyzed FBS, 0.00702 µM	106	99.6	95
RPMI 5 mM glucose + 10% dialyzed FBS, 0.0211 µM	106	99.6	105
RPMI 5 mM glucose + 10% dialyzed FBS, 0.0632 µM	105	95.2	99
RPMI 5 mM glucose + 10% dialyzed FBS, 0.19 µM	103	95.1	112
RPMI 5 mM glucose + 10% dialyzed FBS, 0.569 µM	100	96.7	102
RPMI 5 mM glucose + 10% dialyzed FBS, 1.71 µM	100	100	98.7
RPMI 5 mM glucose + 10% dialyzed FBS, 5.12 µM	98.7	92	99.1
RPMI 5 mM glucose + 10% dialyzed FBS, 15.4 µM	98.7	87.1	91.2
RPMI 5 mM glucose + 10% dialyzed FBS, 46.1 µM	95.9	92	71.2

COc1ccccc1[C@H](c1cccc2ccccc12)[C@@](C)(C#N)C(=O)N1CCC(c2cccc(C(F)(F)F)c2)CC1
AUC of viability dose-response curve
Conditions	NOMO1 [1]	P12-Ichikawa [3]	SEM cells [2]
HPLM + 10% dialyzed FBS	431	450	435
RPMI 5 mM glucose + 10% FBS	458	425	456
RPMI 5 mM glucose + 10% dialyzed FBS	427	432	434

cell viability [%]
Conditions	NOMO1 [4]	P12-Ichikawa [6]	SEM cells [5]
HPLM + 10% dialyzed FBS, 0.000781 µM	96.4	99.7	87.3
HPLM + 10% dialyzed FBS, 0.00234 µM	109	109	103
HPLM + 10% dialyzed FBS, 0.00702 µM	101	104	96.6
HPLM + 10% dialyzed FBS, 0.0211 µM	104	115	97.4
HPLM + 10% dialyzed FBS, 0.0632 µM	115	104	107
HPLM + 10% dialyzed FBS, 0.19 µM	102	113	103
HPLM + 10% dialyzed FBS, 0.569 µM	102	107	108
HPLM + 10% dialyzed FBS, 1.71 µM	93.7	107	99.2
HPLM + 10% dialyzed FBS, 5.12 µM	88.6	92.7	89.3
HPLM + 10% dialyzed FBS, 15.4 µM	64.3	84.5	54.4
HPLM + 10% dialyzed FBS, 46.1 µM	39.9	68.8	39.7
RPMI 5 mM glucose + 10% FBS, 0.000781 µM	102	108	92.3
RPMI 5 mM glucose + 10% FBS, 0.00234 µM	96	115	104
RPMI 5 mM glucose + 10% FBS, 0.00702 µM	101	104	102
RPMI 5 mM glucose + 10% FBS, 0.0211 µM	106	107	107
RPMI 5 mM glucose + 10% FBS, 0.0632 µM	99.6	119	102
RPMI 5 mM glucose + 10% FBS, 0.19 µM	103	99.8	114
RPMI 5 mM glucose + 10% FBS, 0.569 µM	99.7	107	105
RPMI 5 mM glucose + 10% FBS, 1.71 µM	107	92.4	119
RPMI 5 mM glucose + 10% FBS, 5.12 µM	97.6	80.3	111
RPMI 5 mM glucose + 10% FBS, 15.4 µM	85.2	72.7	84.7
RPMI 5 mM glucose + 10% FBS, 46.1 µM	60.3	60.7	56
RPMI 5 mM glucose + 10% dialyzed FBS, 0.000781 µM	100	108	83.3
RPMI 5 mM glucose + 10% dialyzed FBS, 0.00234 µM	98.9	108	91.5
RPMI 5 mM glucose + 10% dialyzed FBS, 0.00702 µM	98.6	117	100
RPMI 5 mM glucose + 10% dialyzed FBS, 0.0211 µM	99.3	112	99.4
RPMI 5 mM glucose + 10% dialyzed FBS, 0.0632 µM	104	122	90.8
RPMI 5 mM glucose + 10% dialyzed FBS, 0.19 µM	99.9	111	104
RPMI 5 mM glucose + 10% dialyzed FBS, 0.569 µM	86.4	108	102
RPMI 5 mM glucose + 10% dialyzed FBS, 1.71 µM	86.5	112	87.8
RPMI 5 mM glucose + 10% dialyzed FBS, 5.12 µM	83.1	88.7	93.9
RPMI 5 mM glucose + 10% dialyzed FBS, 15.4 µM	67.3	71.2	76.6
RPMI 5 mM glucose + 10% dialyzed FBS, 46.1 µM	53.1	47.9	54.9

— the supplement of paper PMC11451515
